Results from EP0603240B1, “SAFENING HERBICIDAL PYRAZOLYLSULFONYLUREAS” (priority 1991, dated 1993).

Experiments:
Format in all cases: in vivo
[1] = tested on: Giant foxtail (Setaria fabergi); assay: Example 23, Procedure II: Antidote Nos. 15 and 17-21 against Herbicide No. 1, 13 days after application
Description: (§1) Containers were filled and compacted with a fumigated silt loam top soil to a depth of about 1.3 cm from the top of the container. A first container was designated as an untreated control, a second container was designated as a herbicide control, and a third container was designated as a herbicide + antidote test container. Each of the containers was seeded with a crop species. A measured amount of herbicide dispersed or dissolved in acetone was applied to a measured quantity of soil. To this same quantity of soil treated with herbicide, there was added a measured amount of antidote dispersed or dissolved in acetone. The quantity of soil treated with the herbicide and antidote was thoroughly mixed to incorporate the herbicide and antidote in the soil uniformly. The seed bed in the third container of soil was covered with the soil treated with the herbicide and antidote and the container was leveled. For each test series, the seed beds of the first and second containers were likewise covered by soil layers. the cover layer of the first container was not treated with herbicide or antidote.
(§2) The containers were then placed on a bench in a greenhouse and sub-irrigated as required for the duration of the test. […] Plant response is measured in terms of percent injury. Antidote efficacy is indicated as the difference in plant injury by the herbicide(s) without the antidote and with the antidote.
(§3) This procedure is the same as Procedure I, but modified in the manner that after incorporation of the chemicals (herbicide and antidote) the containers with the covered seedbed were treated with an initial overhead irrigation equivalent to 0.6 cm rainfall, then subsequently sub-irrigated as required on greenhouse benches.
(§4) In other greenhouse tests, using Procedure II described above, the safening efficacy of Antidote Nos. 15 and 17-21 was evaluated against Herbicide No. 1 in corn in the presence of Giant foxtail (Setaria fabergi) and Velvetleaf (Abutilon theophrasti) as representative annual monocotyledonous and dicotyledonous weeds, respectively.
(§5) Test results are shown in Tables 23A and 23B wherein the indicated plant inhibition represents the average of duplicate replications, with observations being made thirteen (13) days after application of the chemicals. Giant foxtail and Velvetleaf are represented by the symbols "GFT" and "VL", respectively. The data in Table 23A show the test results using the antidotes at 2.24 kg/ha, whereas in Table 23B, the antidotal rate was reduced to 0.56 kg/ha.

corn [2] = assay: as above; settings: 13 days after application
Description: as §1, §2, §3, §4, §5

[3] = tested on: velvetleaf (Abutilon theophrasti); assay: as above
Description: as §1, §2, §3, §4, §5

corn [4] = assay: Example 24, Procedure II: Herbicide No. 1 + co-herbicides Nos. 4, 6, 7, 12 with Antidote Nos. 15 and 17-21
In short: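 Greenhouse pots, herbicide No. 1 plus co-herbicides and antidote in acetone incorporated into silt loam soil covering the corn seed bed, with giant foxtail and velvetleaf; initial overhead irrigation equal to 0.6 cm rainfall, then sub-irrigation. Antidote at 2.24 kg/ha; percent injury read 13 days after application, duplicate average.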

corn [5] = assay: Example 18, Procedure II: Herbicide No. 1 + ERADICANE (EPTC + R-25788) with auxiliary antidotes
Description: as §1, §2, §3
In the test reported in this example, the herbicidal composition was similar to that used in Example 16 in that Herbicide No. 1 was combined with EPTC (Herbicide No. 4) as a co-herbicide and the antidotes included Nos. 1, 2, 7, 13 and 15. However, in this test the EPTC was introduced as a formulation of ERADICANE (EPTC + the antidote R-25788, i.e., Antidote No. 1) at an application rate of 8.96 kg/ha. Thus, in this test two antidotes were present, viz. R-25788 and one of the auxilliary antidotes, No. 2, 13 and 15.
Test procedures were those of Procedure II above.

[6] = Table 23A, Herb. No. 1 0.14 Kg/Ha + antidote 2.24 Kg/ha
[7] = Table 23A, Herb. No. 1 0.28 Kg/Ha + antidote 2.24 Kg/ha
[8] = Table 23A, Herb. No. 1 0.56 Kg/Ha + antidote 2.24 Kg/ha
[9] = Table 23A, Herb. No. 1 1.12 Kg/Ha + antidote 2.24 Kg/ha
[10] = Table 23B, Herb. No. 1 0.14 Kg/Ha + antidote 0.56 Kg/ha
[11] = Table 23B, Herb. No. 1 0.28 Kg/Ha + antidote 0.56 Kg/ha
[12] = Table 23B, Herb. No. 1 0.56 Kg/Ha + antidote 0.56 Kg/ha
[13] = Table 23B, Herb. No. 1 1.12 Kg/Ha + antidote 0.56 Kg/ha

O=C(O)COC(c1ccccc1)c1ccccc1 [compound 19]
% Inhibition GFT [1, 6]: 15% | % Inhibition GFT [1, 7]: 30% | % Inhibition GFT [1, 8]: 50% | % Inhibition GFT [1, 9]: 70% | % Inhibition GFT [1, 10]: 25% | % Inhibition GFT [1, 11]: 40% | % Inhibition GFT [1, 12]: 60% | % Inhibition GFT [1, 13]: 65% | % Inhibition Corn (corn [2]; [6]): 0% | % Inhibition Corn (corn [2]; [7]): 0% | % Inhibition Corn (corn [2]; [8]): 5% | % Inhibition Corn (corn [2]; [9]): 15% | % Inhibition Corn (corn [2]; [10]): 0% | % Inhibition Corn (corn [2]; [11]): 5% | % Inhibition Corn (corn [2]; [12]): 15% | % Inhibition Corn (corn [2]; [13]): 40% | % Inhibition VL [3, 6]: 90% | % Inhibition VL [3, 7]: 85% | % Inhibition VL [3, 8]: 95% | % Inhibition VL [3, 9]: 95% | % Inhibition VL [3, 10]: 85% | % Inhibition VL [3, 11]: 85% | % Inhibition VL [3, 12]: 90% | % Inhibition VL [3, 13]: 90% | % Inhibition Corn (corn [4]; Herb. No. 1 0.07 Kg/ha + Co-Herb. No. 4 1.12 Kg/ha + antidote 2.24 Kg/ha): 0% | % Inhibition Corn (corn [4]; Herb. No. 1 0.07 Kg/ha + Co-Herb. No. 6 0.14 Kg/ha + antidote 2.24 Kg/ha): 0% | % Inhibition Corn (corn [4]; Herb. No. 1 0.07 Kg/ha + Co-Herb. No. 7 0.28 Kg/ha + antidote 2.24 Kg/ha): 0% | % Inhibition Corn (corn [4]; Herb. No. 1 0.07 Kg/ha + Co-Herb. No. 12 0.28 Kg/ha + antidote 2.24 Kg/ha): 0% | % Inhibition Corn (corn [4]; Herb. No. 1 0.14 Kg/ha + Co-Herb. No. 4 1.12 Kg/ha + antidote 2.24 Kg/ha): 0% | % Inhibition Corn (corn [4]; Herb. No. 1 0.14 Kg/ha + Co-Herb. No. 6 0.14 Kg/ha + antidote 2.24 Kg/ha): 0% | % Inhibition Corn (corn [4]; Herb. No. 1 0.14 Kg/ha + Co-Herb. No. 7 0.28 Kg/ha + antidote 2.24 Kg/ha): 0% | % Inhibition Corn (corn [4]; Herb. No. 1 0.14 Kg/ha + Co-Herb. No. 12 0.28 Kg/ha + antidote 2.24 Kg/ha): 0% | % Inhibition Corn (corn [4]; Herb. No. 1 0.28 Kg/ha + Co-Herb. No. 4 1.12 Kg/ha + antidote 2.24 Kg/ha): 5% | % Inhibition Corn (corn [4]; Herb. No. 1 0.28 Kg/ha + Co-Herb. No. 6 0.14 Kg/ha + antidote 2.24 Kg/ha): 5% | % Inhibition Corn (corn [4]; Herb. No. 1 0.28 Kg/ha + Co-Herb. No. 7 0.28 Kg/ha + antidote 2.24 Kg/ha): 5% | % Inhibition Corn (corn [4]; Herb. No. 1 0.28 Kg/ha + Co-Herb. No. 12 0.28 Kg/ha + antidote 2.24 Kg/ha): 5% | % Inhibition Corn (corn [4]; Herb. No. 1 0.56 Kg/ha + Co-Herb. No. 4 1.12 Kg/ha + antidote 2.24 Kg/ha): 5% | % Inhibition Corn (corn [4]; Herb. No. 1 0.56 Kg/ha + Co-Herb. No. 6 0.14 Kg/ha + antidote 2.24 Kg/ha): 10% | % Inhibition Corn (corn [4]; Herb. No. 1 0.56 Kg/ha + Co-Herb. No. 7 0.28 Kg/ha + antidote 2.24 Kg/ha): 10% | % Inhibition Corn (corn [4]; Herb. No. 1 0.56 Kg/ha + Co-Herb. No. 12 0.28 Kg/ha + antidote 2.24 Kg/ha): 20%

COC(=O)c1c(Cl)nn(C)c1S(=O)(=O)NC(=O)Nc1nc(OC)cc(OC)n1 [No.1]
% Injury Corn (corn [5]; Herbicide No.1 0.56 kg/ha + ERADICANE 8.96 kg/ha, no added antidote): 25% | % Injury Corn (corn [5]; Herbicide No.1 0.56 kg/ha alone): 30% | % Injury Corn (corn [5]; Herbicide No.1 1.12 kg/ha + ERADICANE 8.96 kg/ha, no added antidote): 20% | % Injury Corn (corn [5]; Herbicide No.1 1.12 kg/ha alone): 25%
